Laboratory results taken from patent publication US20230414634A1, “METHODS FOR TREATING CHOLESTATIC PRURITUS” (GlaxoSmithKline Intellectual Property (No.2) Limited, priority 2020, published 2023).

Tested on: TSBA, C4, FGF-19, serum autotaxin and LDL cholesterol
Test: GLIMMER Phase 2b study: pharmacodynamic serum biomarkers
Assay type: in vivo, human
Description: The following biomarkers are useful in clinical investigations relating to the treatment of pruritus, particularly cholestatic pruritus:
Serum 7-α-hydroxy-4-cholesten-3-one (C4)
C4 is an intermediate in the biochemical synthesis of bile acids from cholesterol. C4 concentrations reflect the activity of the bile acid synthetic pathway.
FGF-19 a protein which functions as a hormone, regulating bile acid synthesis, with effects on glucose and lipid metabolism.
Autotaxin is the enzyme that produces lysophosphatidic acid (LPA) which is found to correlate with itch intensity.
LDL one of the five major groups of lipoprotein which transport all fat molecules around the body in the extracellular water.
TSBA are metabolized in the liver and can serve as a marker for normal liver function.
Measurement of Level of Pharmacodynamic Biomarkers
Total serum bile acids (TSBA) (FIG. 10)
Serum 7-α-hydroxy-4-cholesten-3-one (C4) (FIG. 2)
Serum fibroblast growth factor-19 (FGF-19) (FIG. 7)
Serum LDL (low-density lipoprotein) cholesterol (FIG. 9)
Further analysis of biomarker parameters provided clear indication of pharmacological action with decreases in total serum bile acids (TSBA), increases in the serum bile acid precursor C4 (7-a-hydroxy-4-cholesten-3-one) and corresponding mean decreases in fibroblast growth factor 19 (FGF-19), a hormone that regulates bile acid synthesis. […] Reductions in FGF-19 and autotaxin were also observed across most treatment groups during the main study period (excluding placebo for FGF-19 and linerixibat 20 mg QD for autotaxin) (FIG. 7, FIG. 8).

CCCC[C@]1(CC)CS(=O)(=O)c2cc(CNC(CC(=O)O)CC(=O)O)c(OC)cc2[C@@H](c2ccccc2)N1 [linerixibat]
FGF-19 mean change from baseline compared with placebo (ANCOVA) (40 mg BID): statistically significant reductions | serum C4 increase (40 mg BID and 90 mg BID doses): largest increase | serum autotaxin concentration compared with placebo (40 mg BID, Week 16): significantly decreased | C4 LS mean ratio increases from baseline (MMRM) (180 mg QD and both BID treatment groups): largest increases | LDL cholesterol compared to the placebo group (Week 16, all linerixibat treatment groups with the exception of 20 mg QD): significantly reduced | fibroblast growth factor-19 (FGF-19) reduction (two BID doses of 40 mg and 90 mg): greatest reduction | total serum bile acids (TSBA) compared with baseline (MMRM) (week 16, 40 mg and 90 mg BID): statistically significant decrease
